Results as given in PMC5054527, “Mechanism of high affinity inhibition of the human urate transporter URAT1” (Scientific Reports, 2016).
Numbering of substitutions follows the chain as printed. Where two headings read alike, the source gives them in different places.

Legend:
[1] = target: T1, r-h TM1-N URAT1 chimera (Rattus norvegicus, UniProt Q3ZAV1, A21T/L18V/T26V/V22M/V25M); experiment: URAT1 uric acid transport activity assay; format: cell-based, human/rat
T1 sequence (Q3ZAV1 1-553 L18V/A21T/V22M/V25M/T26V): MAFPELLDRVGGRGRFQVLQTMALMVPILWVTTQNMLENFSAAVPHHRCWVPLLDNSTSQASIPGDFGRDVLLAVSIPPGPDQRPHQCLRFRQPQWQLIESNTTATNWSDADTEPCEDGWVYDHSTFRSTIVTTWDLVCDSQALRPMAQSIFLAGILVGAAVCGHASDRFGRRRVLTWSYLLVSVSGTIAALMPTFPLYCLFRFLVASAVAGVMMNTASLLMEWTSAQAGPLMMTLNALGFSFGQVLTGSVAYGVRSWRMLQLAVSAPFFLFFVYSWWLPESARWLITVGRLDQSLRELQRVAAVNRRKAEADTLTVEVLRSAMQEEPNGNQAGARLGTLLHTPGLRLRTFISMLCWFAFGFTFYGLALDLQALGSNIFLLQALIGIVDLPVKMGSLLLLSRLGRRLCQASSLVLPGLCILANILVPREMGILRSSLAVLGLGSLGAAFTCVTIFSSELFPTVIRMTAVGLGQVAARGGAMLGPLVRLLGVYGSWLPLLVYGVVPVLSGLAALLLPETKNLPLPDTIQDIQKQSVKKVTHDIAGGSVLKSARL
Text: (§1) hURAT1 (GenBank BC053348.1) and rURAT1 (NCBI NM_001034943.1) genes were purchased from Origene Technologies, Inc. and subcloned into pCMV6/neo using NotI, creating pCMV6/neo-hURAT1 and pCMV6/neo-rURAT1. Mutants were produced by polymerase chain reaction (PCR) or site-directed mutagenesis using the QuikChange Lightning Multi Site-Directed Mutagenesis Kit (Agilent Technologies). […] Detailed methods are provided in Supplementary Methods, and primers are listed in Supplementary Table 1. […] Residues in rURAT1 and hOAT1 that correspond to the residues in hURAT1 were identified from aligned protein sequences (Supplementary Fig. 1)[50].
(§2) DNA (10 μg) was mixed with 30 μl of DreamFect Gold (Boca Scientific) in 2 ml OptiMem (Life Technologies). After 20 minutes, 18 ml of media containing 2 × 10^7 cells in suspension was added and mixed, and 200 μl per well were plated onto white clear-bottomed poly-D-lysine coated 96-well plates (BD Biosciences). The cells were assayed the following day.
(§3) Compounds were serially diluted into assay buffer and added to the cells for 5 minutes prior to addition of radiolabelled uric acid substrate. URAT1-expressing cells were incubated with 100 μM ^14C-uric acid for 10 minutes. […] Each treatment was measured in triplicate.
(§4) Unlabelled uric acid was prepared at a 20 mM stock just prior to use in a solution containing 20 mM dibasic potassium phosphate and 20 mM potassium hydroxide.
(§5) Nonlinear regression analyses using GraphPad Prism software were used to calculate the potency of URAT1 inhibitors (IC50 values) from log (inhibitor) versus response - variable slope (four parameters) equations. Statistical significance was assessed using Student’s unpaired t-tests.

[2] = target: T2, r-V25M rURAT1 point mutant (Rattus norvegicus, UniProt Q3ZAV1, V25M); experiment: URAT1 uric acid transport activity assay; format: cell-based
T2 construct: expressed in transfected cells; host or cells: HEK-293T
T2 sequence (Q3ZAV1 1-553 V25M): T1 sequence (Q3ZAV1 1-553 L18V/A21T/V22M/V25M/T26V) with V18L, T21A, M22V, V26T
Text: as §1, §2, §3, §4, §5

[3] = target: T3, human URAT1 (Homo sapiens, UniProt Q96S37); experiment: ^3H-RDEA3170 URAT1 membrane binding assay; settings: human URAT1 membranes; 10 nM ^3H-RDEA3170
T3 construct: hURAT1 and rURAT1 are 553 amino acid proteins with 12 transmembrane segments; expressed in transfected cells; host or cells: URAT1-transfected cells (HEK-293T per the transfection section)
T3 sequence (Q96S37 1-553): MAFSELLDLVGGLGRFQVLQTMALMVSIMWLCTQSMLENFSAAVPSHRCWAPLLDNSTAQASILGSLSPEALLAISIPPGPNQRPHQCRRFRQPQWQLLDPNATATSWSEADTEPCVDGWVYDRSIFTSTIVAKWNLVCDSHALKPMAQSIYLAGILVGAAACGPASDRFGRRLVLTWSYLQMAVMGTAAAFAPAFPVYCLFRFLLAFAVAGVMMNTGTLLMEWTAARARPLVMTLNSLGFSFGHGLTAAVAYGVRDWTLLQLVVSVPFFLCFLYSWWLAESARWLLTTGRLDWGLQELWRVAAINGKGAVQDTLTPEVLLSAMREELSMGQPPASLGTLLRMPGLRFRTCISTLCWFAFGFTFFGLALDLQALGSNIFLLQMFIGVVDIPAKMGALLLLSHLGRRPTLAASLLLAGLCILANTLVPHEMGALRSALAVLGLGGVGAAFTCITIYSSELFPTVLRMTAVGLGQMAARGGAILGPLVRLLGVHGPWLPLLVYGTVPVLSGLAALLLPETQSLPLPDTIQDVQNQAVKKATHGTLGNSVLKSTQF
Experimental: Membranes were prepared from URAT1-transfected cells. […] Cells were lysed with 100 strokes in a dounce homogenizer using a tight-fitting “B” stem. Lysates were transferred to 1.5 ml Eppendorf tubes and centrifuged at 250 rcf for 5 minutes at 2 °C, and supernatants were transferred to fresh tubes and centrifuged again at 18,000 rcf for 20 minutes at 2 °C. The pellets (membrane fractions) were resuspended in 1 ml of ice-cold binding buffer containing protease inhibitors and frozen at −80 °C. Protein was measured using the Bio-Rad protein assay dye reagent concentrate.
To initiate binding, membranes at 2.5 μg total protein were incubated with ^3H-RDEA3170 for 30 minutes at room temperature. […] The plates were then subjected to scintillation counting. All samples were assayed in triplicate.

CCc1oc2ccccc2c1C(=O)c1cc(Br)c(O)c(Br)c1 [benzbromarone]
IC50 [1]: 16 ± 0.76 µM
IC50 [2]: 11 ± 2.7 µM
displacement of ^3H-RDEA3170 binding to hURAT1 [3]: displace binding of the probe

O=C(O)CSc1nnc(Br)n1-c1ccc(C2CC2)c2ccccc12 [lesinurad, 2-((5-bromo-4-(4-cyclopropylnaphthalen-1-yl)-4H-1,2,4-triazol-3-yl)thio)acetic acid]
IC50 ([1]; r-h TM1-N, MES pH 5.5, 100 μM 14C-uric acid, read-out: IC50 (uric acid transport)): 40 ± 7 µM
IC50 ([2]; r-V25M, MES pH 5.5, 100 μM 14C-uric acid, read-out: IC50 (uric acid transport)): 59 ± 17 µM
displacement of ^3H-RDEA3170 binding to hURAT1 [3]: displace binding of the probe

O=C1C(CC[S+]([O-])c2ccccc2)C(=O)N(c2ccccc2)N1c1ccccc1 (stereo not shown) [sulfinpyrazone]
IC50 ([1]; r-h TM1-N, HEPES pH 7.3, 100 μM 14C-uric acid, read-out: IC50 (uric acid transport)): 12 ± 2.6 µM
fold increased affinity of r-V25M compared to rURAT1 ([2]; from IC50 values): 49 fold
IC50 ([2]; r-V25M, HEPES pH 7.3, 100 μM 14C-uric acid, read-out: IC50 (uric acid transport)): 14 ± 2.3 µM
displacement of ^3H-RDEA3170 binding to hURAT1 [3]: displace binding of the probe
